Data published in patent US12187701B2, “Taire family kinase inhibitors and uses thereof” (Dana-Farber Cancer Institute, Inc., priority 2018, dated 2025).
Like-named read-outs stand apart in the source and are kept apart here.

How the values were obtained:
[1] = biological target: CDK2/CycA (Homo sapiens (Human), UniProt P24941); assay: Z'LYTE kinase assay for CDK2/CycA at Km ATP; format: biochemical; conditions: read-out: IC50 CDK2 Z′LYTE kinase assay
[2] = biological target: CDK16/CycY (Homo sapiens (Human), UniProt Q00536); assay: Lanthascreen Eu kinase binding assay for CDK16/CycY; conditions: read-out: IC50 CDK16 Lanthascreen binding
Experimental: Lanthascreen Eu kinase binding assays were conducted for CDK16/CycY at Life Technologies.

[3] = test system: HCT116 cells; assay: Antiproliferation assay, Cell Titer Glo, 72 hours; format: cell-based
Experimental: HCT116 cells were plated in 384-well plates at 750 cells/well in 50 ul fresh media (McCoy's 5A+10% FBS+1% Penn/Strep) and treated with 0.1 μl candidate compounds in four-fold dilution series using the Janus pinner. Cells were incubated with compounds for 72 hours in 37° C. 5% CO2. Anti-proliferative effects of these compounds were assessed 72 hours after compound addition using Cell Titer Glo (Promega cat #G7571) as described in product manual by luminescence measurements using an Envision platereader. All proliferation assays were performed in biological quadruplicate. IC50 values were determined using a non-linear regression curve fit in GraphPad Prism 6.

[4] = biological target: Cdk14/CycY (Homo sapiens (Human), UniProt O94921); assay: Lanthascreen Eu kinase binding assay for Cdk14/CycY with 30 minute pre-incubation; conditions: 30 minute pre-incubation of kinase with compound; read-out: IC50 CDK14 binding by Lanthascreen
Experimental: Lanthascreen Eu kinase binding assays were conducted for Cdk14/CycY largely as performed in the commercial assay service by Life Technologies, but included a 30 minute pre-incubation step of the kinase with candidate compounds to facilitate covalent bond formation.

Chain of CDK16/CycY (Q00536 whole entry): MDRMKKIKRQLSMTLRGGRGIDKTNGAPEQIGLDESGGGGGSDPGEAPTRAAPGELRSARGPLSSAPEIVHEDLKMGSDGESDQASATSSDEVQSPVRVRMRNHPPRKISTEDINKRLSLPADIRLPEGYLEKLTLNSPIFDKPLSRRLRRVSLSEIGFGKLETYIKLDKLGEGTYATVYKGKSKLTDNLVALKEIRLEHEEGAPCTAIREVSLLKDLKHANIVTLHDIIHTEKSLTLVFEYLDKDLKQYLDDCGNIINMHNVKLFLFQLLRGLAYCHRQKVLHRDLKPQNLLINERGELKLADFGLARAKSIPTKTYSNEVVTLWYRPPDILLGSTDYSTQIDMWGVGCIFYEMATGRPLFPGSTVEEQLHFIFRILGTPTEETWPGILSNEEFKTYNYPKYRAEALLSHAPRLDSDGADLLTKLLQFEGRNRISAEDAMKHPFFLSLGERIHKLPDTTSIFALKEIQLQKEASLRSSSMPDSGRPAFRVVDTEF
Chain of CDK16/CycY (Q8ND76 whole entry partner): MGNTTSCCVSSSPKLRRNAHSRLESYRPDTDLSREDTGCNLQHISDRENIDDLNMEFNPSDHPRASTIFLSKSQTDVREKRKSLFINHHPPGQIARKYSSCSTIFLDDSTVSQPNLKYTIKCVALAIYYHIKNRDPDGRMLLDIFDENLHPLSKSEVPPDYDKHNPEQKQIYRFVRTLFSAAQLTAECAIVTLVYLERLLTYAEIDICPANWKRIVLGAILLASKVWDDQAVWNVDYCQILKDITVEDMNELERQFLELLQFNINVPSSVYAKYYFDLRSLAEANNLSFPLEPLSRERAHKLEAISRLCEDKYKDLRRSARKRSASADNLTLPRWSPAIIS
Chain of Cdk14/CycY (O94921 whole entry): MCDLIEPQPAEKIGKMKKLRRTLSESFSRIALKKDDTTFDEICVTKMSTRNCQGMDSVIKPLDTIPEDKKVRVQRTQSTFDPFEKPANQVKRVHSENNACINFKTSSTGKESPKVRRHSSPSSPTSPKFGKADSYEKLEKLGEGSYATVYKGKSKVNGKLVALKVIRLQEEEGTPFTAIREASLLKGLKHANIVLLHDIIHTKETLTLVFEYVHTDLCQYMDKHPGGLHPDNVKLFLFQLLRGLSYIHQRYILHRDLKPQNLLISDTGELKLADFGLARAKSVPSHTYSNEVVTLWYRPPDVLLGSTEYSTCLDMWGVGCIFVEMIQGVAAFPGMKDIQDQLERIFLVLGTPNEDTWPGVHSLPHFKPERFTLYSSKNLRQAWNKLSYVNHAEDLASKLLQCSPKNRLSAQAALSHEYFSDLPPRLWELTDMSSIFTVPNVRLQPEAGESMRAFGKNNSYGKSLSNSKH
Chain of Cdk14/CycY (Q8ND76 whole entry partner): as the sequence (Q8ND76 whole entry partner) above

| IC50 [1] [nM] | IC50 [2] [nM] | IC50 [3] [nM] | IC50 ([3]; Homo sapiens, HCT-116, 72 h) [nM] | IC50 [4] [nM] | SMILES |
| --- | --- | --- | --- | --- | --- |
| 0.9 | 0.9 | – | – | – | CN(C)C/C=C/C(=O)Nc1cccc(S(=O)(=O)N2CCC(NC(=O)c3n[nH]cc3NC(=O)c3c(Cl)cccc3Cl)CC2)c1 [FMF-03-198-2, (E)-4-(2,6-dichlorobenzamido)-N-(1-((3-(4-(dimethylamino)but-2-enamido)phenyl)sulfonyl)piperidin-4-yl)-1H-pyrazole-3-carboxamide] |
| 26 | 10.2 | 2.1 | 2.2 | – | CN(C)C/C=C/C(=O)Nc1cccc(CN2CCC(NC(=O)c3n[nH]cc3NC(=O)c3c(Cl)cccc3Cl)CC2)c1 [FMF-03-200-2] |
| 3 | 2.3 | – | 76 | – | CCC(=O)Nc1cccc(S(=O)(=O)N2CCC(NC(=O)c3n[nH]cc3NC(=O)c3c(Cl)cccc3Cl)CC2)c1 [FMF-04-060-1, 4-(2,6-dichlorobenzamido)-N-(1-((3-propionamidophenyl)sulfonyl)piperidin-4-yl)-1H-pyrazole-3-carboxamide] |
| – | – | – | 437 | 223 | CN(C)C/C=C/C(=O)Nc1cccc(CN2CCC(NC(=O)c3n[nH]cc3NC(=O)c3c(F)cccc3F)CC2)c1 [FMF-04-160-2, (E)-4-(2,6-difluorobenzamido)-N-(1-(3-(4-(dimethylamino)but-2-enamido)benzyl)piperidin-4-yl)-1H-pyrazole-3-carboxamide] |
| – | – | – | > 10000 | > 1000 | C=CC(=O)Nc1cccc(S(=O)(=O)N2CCC(NC(=O)c3n[nH]c(C)c3NC(=O)c3c(Cl)cccc3Cl)CC2)c1 [FMF-04-181-1, N-(1-((3-acrylamidophenyl)sulfonyl)piperidin-4-yl)-4-(2,6-dichlorobenzamido)-5-methyl-1H-pyrazole-3-carboxamide] |
| – | – | – | 366 | 41 | CN(C)C/C=C/C(=O)Nc1cccc(C(=O)Nc2cccc(NC(=O)c3n[nH]cc3NC(=O)c3c(Cl)cccc3Cl)c2)c1 [FMF-04-196-1, (E)-4-(2,6-dichlorobenzamido)-N-(3-(3-(4-(dimethylamino)but-2-enamido)benzamido)phenyl)-1H-pyrazole-3-carboxamide] |
| – | – | – | 1.9 | 31 | C=CC(=O)Nc1cccc(CN2CCC(NC(=O)c3n[nH]cc3NC(=O)c3c(F)cc(F)cc3F)CC2)c1 [FMF-04-200-1, N-(1-(3-acrylamidobenzyl)piperidin-4-yl)-4-(2,4,6-trifluorobenzamido)-1H-pyrazole-3-carboxamide] |
| – | – | – | 382 | 315 | C=CC(=O)Nc1cccc(S(=O)(=O)N2CCC(NC(=O)c3n[nH]cc3NC(=O)c3ccccc3)CC2)c1 [FMF-05-027-1, N-(1-((3-acrylamidophenyl)sulfonyl)piperidin-4-yl)-4-benzamido-1H-pyrazole-3-carboxamide] |
| – | – | – | > 10000 | 221 | COc1cc(OC)c(C(=O)Nc2c[nH]nc2C(=O)NC2CCN(S(=O)(=O)c3cccc(NC(=O)/C=C/CN(C)C)c3)CC2)c(OC)c1 [FMF-05-028-2, (E)-N-(1-((3-(4-(dimethylamino)but-2-enamido)phenyl)sulfonyl)piperidin-4-yl)-4-(2,4,6-trimethoxybenzamido)-1H-pyrazole-3-carboxamide] |
| – | – | – | 467 | > 10000 | C=CC(=O)Nc1cccc(S(=O)(=O)N2CC[C@@H](NC(=O)c3n[nH]cc3NC(=O)c3c(Cl)cccc3Cl)C2)c1 [FMF-05-065-1, (R)-N-(1-((3-acrylamidophenyl)sulfonyl)pyrrolidin-3-yl)-4-(2,6-dichlorobenzamido)-1H-pyrazole-3-carboxamide] |
| – | – | – | 3000 | > 10000 | C=CC(=O)Nc1ccc(S(=O)(=O)N2CC[C@@H](NC(=O)c3n[nH]cc3NC(=O)c3c(Cl)cccc3Cl)C2)cc1 [FMF-05-066-1, (R)—N-(1-((4-acrylamidophenyl)sulfonyl)pyrrolidin-3-yl)-4-(2,6-dichlorobenzamido)-1H-pyrazole-3-carboxamide] |
| – | – | – | 6200 | 450 | C=CC(=O)Nc1cccc(S(=O)(=O)N2CC[C@H](NC(=O)c3n[nH]cc3NC(=O)c3c(Cl)cccc3Cl)C2)c1 [FMF-05-068-1, (S)—N-(1-((3-acrylamidophenyl)sulfonyl)pyrrolidin-3-yl)-4-(2,6-dichlorobenzamido)-1H-pyrazole-3-carboxamide] |
| – | – | – | > 10000 | 308 | CN(C)C/C=C/C(=O)Nc1cccc(S(=O)(=O)N2CC[C@H](NC(=O)c3n[nH]cc3NC(=O)c3c(Cl)cccc3Cl)C2)c1 [FMF-05-068-2, (S,E)-4-(2,6-dichlorobenzamido)-N-(1-((3-(4-(dimethylamino)but-2-enamido)phenyl)sulfonyl)pyrrolidin-3-yl)-1H-pyrazole-3-carboxamide] |
| – | – | – | 27 | 150 | C=CC(=O)Nc1cccc(CN2CC[C@H](NC(=O)c3n[nH]cc3NC(=O)c3c(Cl)cccc3Cl)C2)c1 [FMF-05-069-1, (S)—N-(1-(3-acrylamidobenzyl)pyrrolidin-3-yl)-4-(2,6-dichlorobenzamido)-1H-pyrazole-3-carboxamide] |
| – | – | – | 31 | 572 | C=CC(=O)Nc1ccc(CN2CC[C@H](NC(=O)c3n[nH]cc3NC(=O)c3c(Cl)cccc3Cl)C2)cc1 [FMF-05-070-1, (S)—N-(1-(4-acrylamidobenzyl)pyrrolidin-3-yl)-4-(2,6-dichlorobenzamido)-1H-pyrazole-3-carboxamide] |
| – | – | – | < 1 | 282 | C=CC(=O)Nc1cccc(CN2CC[C@@H](NC(=O)c3n[nH]cc3NC(=O)c3c(Cl)cccc3Cl)C2)c1 [FMF-05-071-1, (R)—N-(1-(3-acrylamidobenzyl)pyrrolidin-3-yl)-4-(2,6-dichlorobenzamido)-1H-pyrazole-3-carboxamide] |
| – | – | – | < 1 | 257 | C=CC(=O)Nc1ccc(CN2CC[C@@H](NC(=O)c3n[nH]cc3NC(=O)c3c(Cl)cccc3Cl)C2)cc1 [FMF-05-072-1, (R)—N-(1-(4-acrylamidobenzyl)pyrrolidin-3-yl)-4-(2,6-dichlorobenzamido)-1H-pyrazole-3-carboxamide] |
| – | – | – | 30 | 154 | C=CC(=O)Nc1ccc(N2CCC(NC(=O)c3n[nH]cc3NC(=O)c3c(Cl)cccc3Cl)CC2)cc1 [FMF-05-073-1, N-(1-(4-acrylamidophenyl)piperidin-4-yl)-4-(2,6-dichlorobenzamido)-1H-pyrazole-3-carboxamide] |
| – | – | – | 2900 | 1200 | C=CC(=O)Nc1ccc(N2CC[C@H](NC(=O)c3n[nH]cc3NC(=O)c3c(Cl)cccc3Cl)C2)cc1 [FMF-05-074-1, (S)—N-(1-(4-acrylamidophenyl)pyrrolidin-3-yl)-4-(2,6-dichlorobenzamido)-1H-pyrazole-3-carboxamide] |
| – | – | – | > 10000 | 116 | CN(C)C/C=C/C(=O)Nc1ccc(N2CC[C@H](NC(=O)c3n[nH]cc3NC(=O)c3c(Cl)cccc3Cl)C2)cc1 [FMF-05-074-2, (S,E)-4-(2,6-dichlorobenzamido)-N-(1-(4-(4-(dimethylamino)but-2-enamido)phenyl)pyrrolidin-3-yl)-1H-pyrazole-3-carboxamide] |
| – | – | – | 64 | 267 | C=CC(=O)Nc1ccc(N2CC[C@@H](NC(=O)c3n[nH]cc3NC(=O)c3c(Cl)cccc3Cl)C2)cc1 [FMF-05-075-1, (R)—N-(1-(4-acrylamidophenyl)pyrrolidin-3-yl)-4-(2,6-dichlorobenzamido)-1H-pyrazole-3-carboxamide] |
| – | – | – | 714 | 738 | CN(C)C/C=C/C(=O)Nc1ccc(N2CC[C@@H](NC(=O)c3n[nH]cc3NC(=O)c3c(Cl)cccc3Cl)C2)cc1 [FMF-05-075-2, (R,E)-4-(2,6-dichlorobenzamido)-N-(1-(4-(4-(dimethylamino)but-2-enamido)phenyl)pyrrolidin-3-yl)-1H-pyrazole-3-carboxamide] |
| – | – | – | > 10000 | 41 | CN(C)C/C=C/C(=O)Nc1ccc(S(=O)(=O)N2CC[C@H](NC(=O)c3n[nH]cc3NC(=O)c3c(Cl)cccc3Cl)C2)cc1 [FMF-05-084-2, (S,E)-4-(2,6-dichlorobenzamido)-N-(1-((4-(4-(dimethylamino)but-2-enamido)phenyl)sulfonyl)pyrrolidin-3-yl)-1H-pyrazole-3-carboxamide] |
| – | – | – | > 10000 | 218 | CN(C)C/C=C/C(=O)Nc1cccc(N2CC[C@H](NC(=O)c3n[nH]cc3NC(=O)c3c(Cl)cccc3Cl)C2)c1 [FMF-05-086-2, (S,E)-4-(2,6-dichlorobenzamido)-N-(1-(3-(4-(dimethylamino)but-2-enamido)phenyl)pyrrolidin-3-yl)-1H-pyrazole-3-carboxamide] |
| – | – | 22 | – | 1100 | C=CC(=O)Nc1cccc(N2CC[C@@H](NC(=O)c3n[nH]cc3NC(=O)c3c(Cl)cccc3Cl)C2)c1 [FMF-05-087-1, (R)—N-(1-(3-acrylamidophenyl)pyrrolidin-3-yl)-4-(2,6-dichlorobenzamido)-1H-pyrazole-3-carboxamide] |
| – | – | – | 123 | 1300 | CN(C)C/C=C/C(=O)Nc1cccc(N2CC[C@@H](NC(=O)c3n[nH]cc3NC(=O)c3c(Cl)cccc3Cl)C2)c1 [FMF-05-087-2, (R,E)-4-(2,6-dichlorobenzamido)-N-(1-(3-(4-(dimethylamino)but-2-enamido)phenyl)pyrrolidin-3-yl)-1H-pyrazole-3-carboxamide] |
